This note sets out measurements from patent US9814712B2, “(S)-pirlindole and its pharmaceutically acceptable salts for use in medicine” (TECNIMEDE SOCIEDADE TECNICO-MEDICINAL S.A., priority 2014, dated 2017).

The subject of the assay is spared nerve injury (SNI) model, mechanical allodynia. Briefly: Von Frey test of mechanical allodynia in the spared nerve injury (SNI) model. The class given is in vivo, Sprague-Dawley rats. To be noted: SNI rats, 20 mg/kg i.p. daily, Von Frey monofilaments, naive and sham 15 g. From the text: For this purpose, the inventors have chosen the animal model designed by Decosterd and Woolf (Pain, 2000), which developed a partial denervation model, technically easy to perform and subject to minimal variability in the degree of damage produced. Most important was that this is a model that will enable a direct measurement of changes in both injured primary sensory neurons and in neighbouring intact sensory neurons so that their relative contribution to the pathophysiology of pain could be investigated. […] All procedures were performed on adult (200-250 g) male Sprague-Dawley rats. Under halothane (2%) anesthesia, the skin on the lateral surface of the thigh was incised and a section made directly through the biceps femoris muscle exposing the sciatic nerve and its three terminal branches: the sural, the common peroneal and the tibial nerves. The spared nerve injury procedure comprised an axotomy and ligation of the tibial and common peroneal nerves leaving the sural nerve intact. The common peroneal and the tibial nerves were tight-ligated with 5.0 silk and sectioned distal to the ligation, removing 2±4 mm of the distal nerve stump. Great care was taken to avoid any contact with or stretching of the intact sural nerve. Muscle and skin were closed in two layers. Sham controls involved exposure of the sciatic nerve and its branches without any lesion. The Von Frey test is a mechanical sensitivity assay that consists of thin calibrated plastic filaments, called Von Frey hairs, which are applied to the plantar surface of the hindpaw of the tested animal. The filaments present different degrees of stiffness that are used to determine the one that evokes a hindpaw withdrawal. Each filament, starting with the less stiff, is applied to the plantar surface of both hindpaws of each rat. The process is repeated with Von Frey hairs of increasing stiffness until one evokes a reflexive and sustained hindpaw withdrawal. This is defined as the withdrawal threshold, is measured in grams and is an indicator of mechanical allodynia. In the present example the animals were divided in 6 (six) groups (n=7 per group): naive control (negative control), sham control, SNI plus water (positive control), SNI plus (rac)-pirlindole 20 mg/kg, SNI plus (S)-pirlindole 20 mg/kg, SNI plus (R)-pirlindole 20 mg/kg and. After the application of surgical procedure to the groups of sham control, SNI plus water (positive control), SNI plus (rac)-pirlindole, SNI plus (S)-pirlindole and SNI plus (R)-pirlindole, the animals were confined during a 7 weeks (7 wk) period aiming the full induction of mechanical allodynia. Following a 3 week (3 wk), treatment period was started and water or one of the test items (rac-pirlindole, S-pirlindole and R-pirlindole) were administered by intraperitoneal (ip) route, on a daily basis. At the 2nd and 3rd week of treatment the mechanical allodynia was tested. The animals were placed on an elevated wire grid and the plantar surface of the paw stimulated with a series of ascending force Von Frey monofilaments. The threshold was taken as the lowest force that evoked a brisk withdrawal response to one of the repetitive stimuli (Tal and Bennett, 1994). The lateral and medial plantar surfaces of the paw as well as its dorsal surface were tested.

The mark [1] stands for this setting: wk2 of treatment, SNI plus water 0.41 g.
Where [2] appears, read: wk3 of treatment, SNI plus water 0.14 g.

Regarding `Cc1ccc2c(c1)c1c3n2CCNC3CCC1` (racemic) [(rac)-pirlindole, 2,3,3a,4,5,6-hexahydro-8 methyl-1H-pyrazino [3,2,1-j, k] carbazole], the “mean lowest force that evoked a brisk withdrawal response” value is 3.50 g under setting [1] and 2.08 g under setting [2].

`Cc1ccc2c(c1)c1c3n2CCN[C@@H]3CCC1` [(R)-pirlindole]: the “mean lowest force that evoked a brisk withdrawal response” value by setting is: under setting [1], 3.08 g; under setting [2], 1.39 g.

For `Cc1ccc2c(c1)c1c3n2CCN[C@H]3CCC1` [(S)-pirlindole], the “mean lowest force that evoked a brisk withdrawal response” value reads like this: under setting [1], 4.51 g; under setting [2], 7.43 g.
